Assay results published in PMC10975178, “Evaluation on the Potential for Hepatotoxic Components from Herba Epimedii to Induce Apoptosis in HepG2 Cells and the Analysis of the Influence of Metabolism in Liver Microsomes” (Molecules, 2024).

Assays:
[1] = in vitro; format: in vitro ADME, rhesus monkeys; conditions: rhesus monkey, microsomes; for amount remaining: 1 h, 5 μM
[2] = system: caspase-3; experiment: Western blot, caspase-3 expression in HepG2 cells; format: cell-based; conditions: 24 h, high concentration (sagittatoside A 49, icariside I 50, baohuoside I 32, icaritin 3.8 μg/mL), vs untreated cells
Protocol: (§1) To explore the mechanism of apoptosis induced by the hepatotoxic compounds, the expression of key proteins related to apoptosis, including Bax, Bcl-2, Caspase-3 and Caspase-9, was assessed by western blotting. HepG2 cells were treated with different concentrations of the hepatotoxic compounds for 24 h and collected with a cell scraper. The concentrations of sagittatoside A were set to 12.2, 24.5, and 49 μg/mL; those of icariside I were 12.5, 25, and 50 μg/mL; baohuoside I was used at 8, 16, and 32 μg/mL; and icaritin was tested at 0.9, 1.9 and 3.8 μg/mL. The cells were washed twice with PBS and lysed in total protein cell lysis buffer. Protein concentrations were determined using a BCA protein assay kit (Thermo Fisher Scientific, Waltham, MA, USA). Then, to destroy the 3-dimensional protein structure, the proteins in the loading buffer were heated at 95 °C for 5 min. An equal amount of protein from each sample was separated by SDS-PAGE on 10% SDS–polyacrylamide gels. After the protein was transferred to a polyvinylidene difluoride membrane (Millipore, Bedford, MA, USA), the membrane was incubated in blocking buffer (5% nonfat dairy milk in TBST) for 2 h and probed with various antibodies (1:1000) overnight at 4 °C. […] The changes in the protein expression levels are expressed as percentages relative to the levels measured in the corresponding control groups.

[3] = system: HepG2 cells; experiment: HepG2 cell apoptosis after incubation of the compound with human liver microsomes (metabolism mixture); format: cell-based; conditions: mixture on HepG2 cells 24 h
Protocol: HepG2 cells were cultured in Roswell Park Memorial Institute (RPMI) 1640 medium (GIBCO, Grand Island, NY, USA) supplemented with 10% heat-inactivated fetal bovine serum (PAN Biotech GmbH, Aidenbach, Germany), 100 U/mL penicillin, and 100 μg/mL streptomycin. The cells were maintained in a humidified atmosphere with 5% CO2 at 37 °C. Upon reaching 90% confluence, the cells were prepared as single-cell suspensions at a density of 1 × 10^4 cells/mL by treatment with 0.25% trypsin with 0.02% EDTA and then dispensed into 12-well plates (Corning, NY, USA) with a total volume of 1.5 mL per well. After culturing for 24 h, the medium was discarded, and the cells were incubated with fresh medium or medium containing different hepatotoxic compounds at various concentrations for an additional 24 h. […] After treatment, the cells were collected for apoptosis analysis. To investigate the effects of the hepatotoxic compounds on HepG2 cell apoptosis, flow cytometry was performed with a FACSCalibur flow cytometer (BD Biosciences) using an Annexin V-FITC apoptosis detection kit. The cells were prepared according to the manufacturer’s instructions. Briefly, the collected cell pellets were washed three times by centrifugation at 2000 rpm and 4 °C for 5 min with PBS and resuspended in binding buffer. Then, the cells were incubated with Annexin V-FITC for 15 min, propidium iodide (PI) was added, and the cells were incubated for another 5 min. The whole labeling process was performed in the dark. After fluorescent labeling, the cell suspension was immediately analyzed by flow cytometry. Cells in the early phases of apoptosis can bind Annexin V-FITC but exclude PI, while cells in late apoptosis or those that are necrotic can be stained with Annexin V-FITC and PI simultaneously. The incubation mixtures were prepared following the instructions from the manufacturer of the metabolic stability kits and contained sagittatoside A, icariside I, baohuoside I, and icaritin, of which the final concentrations were 49, 50, 32 and 3.8 μg/mL. […]

[4] = system: caspase-9; experiment: Western blot, caspase-9 expression in HepG2 cells; format: cell-based; conditions: 24 h, high concentration (sagittatoside A 49, icariside I 50, baohuoside I 32, icaritin 3.8 μg/mL), vs untreated cells
Protocol: To explore the mechanism of apoptosis induced by the hepatotoxic compounds, the expression of key proteins related to apoptosis, including Bax, Bcl-2, Caspase-3 and Caspase-9, was assessed by western blotting. HepG2 cells were treated with different concentrations of the hepatotoxic compounds for 24 h and collected with a cell scraper. The concentrations of sagittatoside A were set to 12.2, 24.5, and 49 μg/mL; those of icariside I were 12.5, 25, and 50 μg/mL; baohuoside I was used at 8, 16, and 32 μg/mL; and icaritin was tested at 0.9, 1.9 and 3.8 μg/mL. The cells were washed twice with PBS and lysed in total protein cell lysis buffer. Protein concentrations were determined using a BCA protein assay kit (Thermo Fisher Scientific, Waltham, MA, USA). Then, to destroy the 3-dimensional protein structure, the proteins in the loading buffer were heated at 95 °C for 5 min. An equal amount of protein from each sample was separated by SDS-PAGE on 10% SDS–polyacrylamide gels. After the protein was transferred to a polyvinylidene difluoride membrane (Millipore, Bedford, MA, USA), the membrane was incubated in blocking buffer (5% nonfat dairy milk in TBST) for 2 h and probed with various antibodies (1:1000) overnight at 4 °C. The membrane was then probed with a secondary antibody (1:5000) for 2 h at room temperature, and detection was performed with an enhanced chemiluminescence kit (Millipore, Bedford, MA, USA). β-Actin was used as the control to confirm equal loading. Densitometry index analysis of the bands was conducted using a gel imagery system. The changes in the protein expression levels are expressed as percentages relative to the levels measured in the corresponding control groups.

[5] = system: Bax/Bcl-2; experiment: Western blot, Bax/Bcl-2 ratio in HepG2 cells; format: cell-based; conditions: 24 h, high concentration (sagittatoside A 49, icariside I 50, baohuoside I 32, icaritin 3.8 μg/mL), vs untreated cells
Protocol: as §1

SMILES: COc1ccc(-c2oc3c(CC=C(C)C)c(O)cc(O)c3c(=O)c2O[C@@H]2O[C@@H](C)[C@H](O)[C@@H](O)[C@H]2O)cc1 [baohuoside I]
- amount remaining [1]: 12.41 ± 1.02%
- caspase-3 expression [2]: significant increase
- apoptosis rate, metabolism mixture ([3]; 32 μg/mL incubated 30 min with human liver microsomes (phase I and II), insignificant): 3.40 ± 0.19%
- caspase-9 expression [4]: significant increase
- Bax/Bcl-2 ratio [5]: increased

SMILES: COc1ccc(-c2oc3c(CC=C(C)C)c(O[C@@H]4O[C@H](CO)[C@@H](O)[C@H](O)[C@H]4O)cc(O)c3c(=O)c2O)cc1 [icariside I]
- CLint scaled at 5 μM [1]: 38.1 mL/min/kg
- amount remaining [1]: 6.50 ± 0.49%
- apoptosis rate, metabolism mixture ([3]; 50 μg/mL incubated 30 min with human liver microsomes (phase I and II), p < 0.05): 3.86 ± 0.22%
- caspase-9 expression [4]: significant increase

SMILES: COc1ccc(-c2oc3c(CC=C(C)C)c(O)cc(O)c3c(=O)c2O)cc1 [icaritin]
- amount remaining [1]: 24.73 ± 2.38%
- caspase-3 expression [2]: significant increase
- apoptosis rate, metabolism mixture ([3]; 3.8 μg/mL incubated 30 min with human liver microsomes (phase I and II), p < 0.01): 5.61 ± 0.83%
- caspase-9 expression [4]: significant increase
- Bax/Bcl-2 ratio [5]: increased
